The test system of data set [1] is SREBP1c-CIDEA pathway. As to the kind of experiment: liver mRNA and protein expression (qPCR, western blot). The class given is in vivo, mouse. The note with it: for protein levels of mature nuclear SREBP1 and CIDEA in the liver: HFD 16 weeks. The procedure: (§1) The mucosa of intestine was gently scraped and liver was taken and both were flash frozen in liquid nitrogen and stored at −80° C. until RNA was prepared. RNA was extracted from frozen intestine and liver using TRIzol reagent (Invitrogen, Carlsbad, Calif.). cDNA was synthesized from 1 μg total RNA using Superscript II reverse transcriptase (Invitrogen, Carlsbad, Calif.). qPCR primers were designed with qPrimerDepot. Measured mRNA levels were normalized to those of 18S ribosomal RNA and expressed as fold change relative to those of control group.
(§2) Liver whole-cell or nuclear extracts were prepared. Membranes were incubated with antibodies against FXR (Santa Cruz Biotechnology, Inc., Santa Cruz, Calif.), SREBP1 (BD Biosciences, San Jose, Calif.), and CIDEA (Abcam, Cambridge, Mass.). The signals obtained were normalized to β-ACTIN (Abcam) for whole cell extract and LAMIN A/C (Santa Cruz) for nuclear extracts.

Data set [2] deals with high-fat diet-treated Fxr^fl/fl and Fxr^ΔIE mice. The data set can be described thus: body mass gain of tempol-treated mice on a high-fat diet. The note with it: high-fat diet 10 weeks. The format is in vivo, mouse. The source says:
High-fat diet (HFD) (60% kcal consisting of fat) was purchased from Bioserv. […] Fxr^fl/fl and Fxr^ΔIE (Kim et al., J. Lipid Res. 48:2664-2672, 2007) mice were backcrossed with C57BL/6N mice for over 10 generations. For the antibiotic (the combination of bacitracin, neomycin, and streptomycin) study, male C57BL/6N mice from 6 weeks of age were fed a high-fat diet (“HFD) and administered 0.1% (w/v) of each compound (the combination of bacitracin, neomycin, and streptomycin) in the drinking water. […] For TβMCA in vivo, male C57BL/6N mice from 6 weeks of age were fed a HFD and treated with the antibiotics (0.1% of each compound of bacitracin, neomycin, and streptomycin combination) for 3 days. Vehicle (saline), TCA (400 mg/kg body weight, dissolved in saline) or a combination of TCA and TβMCA (400 mg/kg body weight of each compound, dissolved in saline) were orally administered to the mice and followed by a second dose 12 h later. The mice were killed 2 h later for tissue collection. For the Gly-MCA study, Gly-MCA was custom synthesized. […] Cumulative food intake and TEEbal were measured for 1 week in vehicle and Gly-MCA-treated mice from 6 to 7 weeks of HFD. TEEbal was measured as previously described (Ravussin et al., Int. J. Obesity 37:399-403, 2013). […]

In data set [3] the test system is HFD-induced NAFLD model. As to the kind of experiment: HFD-induced NAFLD model: liver histology, liver weight, triglycerides (tempol, antibiotic). The format is in vivo, mouse. An excerpt:
High-fat diet (HFD) (60% kcal consisting of fat) was purchased from Bioserv. […] Fxr^fl/fl and Fxr^ΔIE (Kim et al., J. Lipid Res. 48:2664-2672, 2007) mice were backcrossed with C57BL/6N mice for over 10 generations. For the antibiotic (the combination of bacitracin, neomycin, and streptomycin) study, male C57BL/6N mice from 6 weeks of age were fed a high-fat diet (“HFD) and administered 0.1% (w/v) of each compound (the combination of bacitracin, neomycin, and streptomycin) in the drinking water. […] For TβMCA in vivo, male C57BL/6N mice from 6 weeks of age were fed a HFD and treated with the antibiotics (0.1% of each compound of bacitracin, neomycin, and streptomycin combination) for 3 days. Vehicle (saline), TCA (400 mg/kg body weight, dissolved in saline) or a combination of TCA and TβMCA (400 mg/kg body weight of each compound, dissolved in saline) were orally administered to the mice and followed by a second dose 12 h later. The mice were killed 2 h later for tissue collection. For the Gly-MCA study, Gly-MCA was custom synthesized. Bacon-flavored dough pills were produced as described (Walker et al., Toxicol. Appl. Pharmacol. 260:65-69, 2012) for oral administration of Gly-MCA (0.25 mg Gly-MCA/pill, dose of 10 mg/kg). Mice were trained to eat the dough pills prior to the study. For the prevention of obesity, insulin resistance and NAFLD, male wild-type (WT) C57BL/6N mice, 6- to 8-weeks-old, were fed a high-fat diet (Bio-Serv, Frenchtown, N.J.; 60 kcal % fat) from the age of 6 weeks and were orally administered with vehicle (control pills) or Gly-MCA (0.25 mg/pill/day, dose 10 mg/kg). C57BL/6N mice fed a high-fat diet for 12 weeks were administered (0.25 mg Gly-MCA/pill, dose of 5 mg/kg). Leptin-deficient db/db mice, 6- to 8-weeks-old, fed a chow diet, were administered Gly-MCA (0.25 mg/pill/day, 10 mg/kg). Mice were housed individually in their home cages. Cumulative food intake and TEEbal were measured for 1 week in vehicle and Gly-MCA-treated mice from 6 to 7 weeks of HFD. TEEbal was measured as previously described (Ravussin et al., Int. J. Obesity 37:399-403, 2013).
Hematoxylin and eosin (H&E) staining were performed on formalin fixed paraffin embedded sections using a standard protocol. Oil red 0 staining was performed on frozen liver sections using a standard protocol. At least three discontinuous liver sections were evaluated for each mouse.
Hepatic lipids were extracted using a 2:1 chloroform-methanol solution. Liver triglycerides were measured with a triglyceride colorimetric assay kit, according to the manufacturer's recommendation (Bioassay Systems, Hayward, Calif.).

Data set [4] has as its system bile salt hydrolase (BSH). The data set can be described thus: fecal bile salt hydrolase activity. The class given is in vivo, mouse. To be noted: tempol vs vehicle. On the procedure:
Fecal proteins were prepared from feces samples (0.5 g) in pH 7.4 phosphate buffered saline (PBS, 5.0 mL) using sonication. […] Briefly, incubation was carried out in 3 mM sodium acetate buffer, pH 5.2, containing 0.1 mg/ml fecal protein and 50 μM TCDCA-d5 in a final volume of 200 μL. After a 20 min incubation at 37° C., the reaction was stopped by plunging the samples into dry ice. 100 μL of acetonitrile was directly added to the reaction mix. After centrifuging at 14,000×g for 20 min, 5 μL of the supernatant was transferred to an auto sampler vial subjected to analysis by a UPLC system coupled with a XEVO triple quadrupole tandem mass spectrometer (Waters Corp., Milford, Mass.).

Data set [5] deals with T1, human FXR (Homo sapiens, UniProt Q96RI1).
T1 construct: expressed in transfected cells; host or cells: HEK293T
T1 sequence (Q96RI1 262-486 limits assumed): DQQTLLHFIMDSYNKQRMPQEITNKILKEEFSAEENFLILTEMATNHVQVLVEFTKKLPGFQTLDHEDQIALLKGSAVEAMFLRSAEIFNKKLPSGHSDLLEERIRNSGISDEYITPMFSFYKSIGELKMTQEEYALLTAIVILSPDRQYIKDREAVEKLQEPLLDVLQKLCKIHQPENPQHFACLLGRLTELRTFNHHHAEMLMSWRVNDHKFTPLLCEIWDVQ
The data set can be described thus: human FXR competition assay (GAL4-FXR chimeric receptor luciferase, HEK293T). The format is cell-based. To be noted: in the presence of GW4064. The procedure: Luciferase detection was conducted using the Dual Luciferase Reporter Assay kit (Promega Corp., Madison, Wis.) and a Tecan GeniosPro luminescent plate reader (Research Triangle Park, N.C.).
Luciferase detection was conducted using the Dual Luciferase Reporter Assay kit (Promega; Madison, Wis.) and a Tecan GeniosPro™ luminescent plate reader (Research Triangle Park, N.C.).

In data set [6] the test system is primary hepatocytes. As to the kind of experiment: ceramide treatment of cultured primary hepatocytes. The format is cell-based, mouse. On the procedure: Primary hepatocytes from 6-week-old C57BL/6N mice were obtained by collagenase 1 (Invitrogen, Carlsbad, Calif.) perfusion. The cells were purified by 45% Percoll (Sigma, St. Louis, Mo.) density centrifugation and cultured in DMEM (Invitrogen, Carlsbad, Calif.) with 10% fetal bovine serum and 1% Insulin-Transferrin-Selenium-Ethanolamine (ITS-X) (Invitrogen, Carlsbad, Calif.). The viability of hepatocytes was determined using trypan blue dye exclusion, and those with higher than 85% viability were used. The medium was changed to DMEM with 1% fetal bovine serum after culturing for 4 hours. After starvation for 4 hours, the cells were exposed to ceramide. At the prescribed time points, cells were harvested and subjected to qPCR analysis and TG content detection.
as §1, §2

`CC1(C)CC(O)CC(C)(C)N1[O]` [tempol, 4-hydroxy-2,2,6,6,-tetramethylpiperidine-1-oxyl]: the “protein levels of mature nuclear SREBP1 and CIDEA in the liver” value in data set [1] (Fxr^ΔIE mice treated with tempol) is “no decrease”; in data set [1] (tempol-treated Fxr^fl/fl mice), “significantly reduced”. In addition, the “inflammation-related genes (Tlr2, Tlr4, Tlr9, Tnfα) mRNA in liver” value in data set [1] (HFD 7 weeks) is given as “comparable”. In data set [2] (Fxr^fl/fl mice), the “weight gain less than that of vehicle treated mice” value is on record as “approximately 65%”. Besides, in data set [2] (Fxr^ΔIE mice), the “weight gain vs vehicle” value is recorded as “insignificant difference in weight gain”. Also, the liver weights result in data set [3] (Fxr^fl/fl mice, HFD) was “significantly reduced”; in data set [3] (HFD) it was “decreased”. Also, the “hepatic lipid droplets (liver histology)” value in data set [3] (Fxr^fl/fl mice, HFD 14 weeks (antibiotic) and 16 weeks (tempol)) is recorded as “decreased hepatic lipid droplets”; in data set [3] (tempol: HFD 16 weeks, antibiotic: HFD 7 weeks), “significant reduction in hepatic lipid droplets”. Also, in data set [3] (Fxr^ΔIE mice, HFD), the “hepatic lipid (liver histology)” value is on record as “no changes in hepatic lipid”. For the same compound, the “hepatic triglyceride content (hepatic steatosis)” value in data set [3] (Fxr^ΔIE mice, HFD) is listed as “did not alleviate hepatic steatosis”. In addition, the “hepatic triglyceride (TG) contents decreased to” value in data set [3] (HFD, relative to vehicle) is reported as roughly 35%. For the same compound, the “bile salt hydrolase (BSH) enzymatic activity in the feces” value in data set [4] is “significant downregulation”.
Turning to `C[C@H](CCC(=O)NCCS(=O)(=O)O)[C@H]1CC[C@H]2[C@@H]3[C@H](O)[C@@H](O)[C@@H]4C[C@H](O)CC[C@]4(C)[C@H]3CC[C@]12C` [TαMCA], the “FXR activity induced by synthetic agonist GW4064 (luciferase, normalized to Renilla)” value in data set [5] is listed as “inhibited FXR”.
The same measure, in the same setting: with `C[C@H](CCC(=O)NCCS(=O)(=O)O)[C@H]1CC[C@H]2[C@@H]3[C@@H](O)[C@H](O)[C@@H]4C[C@H](O)CC[C@]4(C)[C@H]3CC[C@]12C` [TWMCA] the entry was “inhibited FXR”.
Turning to ceramide, in data set [6] (16 hours, 2, 5, 10 μM ceramide), the “mRNA of fatty acid synthesis and TG formation genes (Srebp1c, Cidea, Elovl6, Dgat2)” value was “significantly upregulated”; the “mRNA of fatty acid β-oxidation genes (Cpt1, Acox1, Ehhadh, Acaa1a)” value is on record as “not affected”. Further, the “triglyceride contents in primary hepatocytes” value in data set [6] (24 hours, 2, 5, 10 μM ceramide) is “significantly increased triglyceride contents”. The “protein levels of nuclear SREBP1-N and CIDEA” value in data set [6] (ceramide 2 μM and 10 μM, 24 hours) is “significantly induced”.

Values taken from patent publication US10233209B2, “Inhibitors of the farnesoid x receptor and uses in medicine” (The United States of America, as represented by the …, priority 2013, dated 2019).
